The source of these data is ChEMBL document CHEMBL5223114, “Design, synthesis and biological evaluation of novel macrocyclic derivatives bearing aniline pyrimidine scaffolds as EGFR-TKIs” (Bioorg Med Chem Lett, 2022).

Bounds are passed on as bounds.

The subject of test [1] is BaF3. Briefly: Antiproliferative activity against mouse BaF3 cells harboring EGFR del19/T790M double mutant assessed as inhibition of cell growth incubated for 72 hrs by CCK-8 assay. It is filed as functional, cell-based. To be noted: BaF3, 72 h. For orientation: Tetrazolium assays rely on reduction of a dye to a coloured formazan, in cell work by metabolically active cells.

The subject of test [2] is BaF3. Briefly: Antiproliferative activity against mouse BaF3 cells harboring EGFR del19/T790M/C797S triple mutant assessed as inhibition of cell growth incubated for 72 hrs by CCK-8 assay. To be noted: BaF3, 72 h. In kind it is functional, cell-based.
Test [3] concerns the target Epidermal growth factor receptor (Homo sapiens, UniProt P00533, 746-750DEL/C797S/T790M). Briefly: Inhibition of EGFR d746-750/T790M/C797S triple mutant (unknown origin).
For test [4], the target named is Epidermal growth factor receptor (Homo sapiens, UniProt P00533, 746-750DEL/T790M). Briefly: Inhibition of EGFR d746-750/T790M double mutant (unknown origin).
Epidermal growth factor receptor (Homo sapiens, UniProt P00533, 746-750DEL/T790M), sequence (P00533 whole entry, looked up, stated change not applied): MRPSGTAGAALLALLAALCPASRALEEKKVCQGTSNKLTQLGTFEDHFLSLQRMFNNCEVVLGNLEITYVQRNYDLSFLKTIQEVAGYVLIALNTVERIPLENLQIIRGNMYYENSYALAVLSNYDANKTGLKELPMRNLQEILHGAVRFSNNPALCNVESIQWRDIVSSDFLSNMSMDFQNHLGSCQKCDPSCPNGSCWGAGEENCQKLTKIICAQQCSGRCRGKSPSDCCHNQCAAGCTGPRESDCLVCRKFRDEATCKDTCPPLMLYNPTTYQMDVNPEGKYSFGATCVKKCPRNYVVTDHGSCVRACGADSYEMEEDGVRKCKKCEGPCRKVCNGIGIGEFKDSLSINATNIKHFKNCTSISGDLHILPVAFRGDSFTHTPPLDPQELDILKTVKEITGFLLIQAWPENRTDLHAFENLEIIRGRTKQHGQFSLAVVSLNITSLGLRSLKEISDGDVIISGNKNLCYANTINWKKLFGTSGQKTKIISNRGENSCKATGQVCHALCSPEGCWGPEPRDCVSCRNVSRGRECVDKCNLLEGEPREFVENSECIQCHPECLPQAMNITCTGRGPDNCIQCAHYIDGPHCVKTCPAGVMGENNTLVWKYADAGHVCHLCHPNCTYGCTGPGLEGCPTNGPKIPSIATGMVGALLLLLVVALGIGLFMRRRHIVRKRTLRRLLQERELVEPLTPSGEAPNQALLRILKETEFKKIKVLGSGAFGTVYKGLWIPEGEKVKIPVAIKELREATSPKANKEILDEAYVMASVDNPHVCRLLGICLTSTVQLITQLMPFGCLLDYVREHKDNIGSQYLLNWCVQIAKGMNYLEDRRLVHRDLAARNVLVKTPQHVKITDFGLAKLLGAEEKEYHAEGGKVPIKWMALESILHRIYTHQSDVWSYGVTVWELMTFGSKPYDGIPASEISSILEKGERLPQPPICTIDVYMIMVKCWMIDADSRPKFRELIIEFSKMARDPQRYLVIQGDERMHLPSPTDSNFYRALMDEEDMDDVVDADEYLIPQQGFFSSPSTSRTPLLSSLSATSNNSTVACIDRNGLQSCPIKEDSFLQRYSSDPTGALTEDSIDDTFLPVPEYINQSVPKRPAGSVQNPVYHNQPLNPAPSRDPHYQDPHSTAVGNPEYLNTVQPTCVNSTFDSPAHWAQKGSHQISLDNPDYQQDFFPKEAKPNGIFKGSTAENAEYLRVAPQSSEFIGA
The target in test [5] is Epidermal growth factor receptor (Homo sapiens, UniProt P00533, L858R/T790M). Briefly: Inhibition of EGFR L858R/T790M double mutant (unknown origin).
Epidermal growth factor receptor (Homo sapiens, UniProt P00533, L858R/T790M), sequence (P00533 25-1210 T790M/L858R limits assumed): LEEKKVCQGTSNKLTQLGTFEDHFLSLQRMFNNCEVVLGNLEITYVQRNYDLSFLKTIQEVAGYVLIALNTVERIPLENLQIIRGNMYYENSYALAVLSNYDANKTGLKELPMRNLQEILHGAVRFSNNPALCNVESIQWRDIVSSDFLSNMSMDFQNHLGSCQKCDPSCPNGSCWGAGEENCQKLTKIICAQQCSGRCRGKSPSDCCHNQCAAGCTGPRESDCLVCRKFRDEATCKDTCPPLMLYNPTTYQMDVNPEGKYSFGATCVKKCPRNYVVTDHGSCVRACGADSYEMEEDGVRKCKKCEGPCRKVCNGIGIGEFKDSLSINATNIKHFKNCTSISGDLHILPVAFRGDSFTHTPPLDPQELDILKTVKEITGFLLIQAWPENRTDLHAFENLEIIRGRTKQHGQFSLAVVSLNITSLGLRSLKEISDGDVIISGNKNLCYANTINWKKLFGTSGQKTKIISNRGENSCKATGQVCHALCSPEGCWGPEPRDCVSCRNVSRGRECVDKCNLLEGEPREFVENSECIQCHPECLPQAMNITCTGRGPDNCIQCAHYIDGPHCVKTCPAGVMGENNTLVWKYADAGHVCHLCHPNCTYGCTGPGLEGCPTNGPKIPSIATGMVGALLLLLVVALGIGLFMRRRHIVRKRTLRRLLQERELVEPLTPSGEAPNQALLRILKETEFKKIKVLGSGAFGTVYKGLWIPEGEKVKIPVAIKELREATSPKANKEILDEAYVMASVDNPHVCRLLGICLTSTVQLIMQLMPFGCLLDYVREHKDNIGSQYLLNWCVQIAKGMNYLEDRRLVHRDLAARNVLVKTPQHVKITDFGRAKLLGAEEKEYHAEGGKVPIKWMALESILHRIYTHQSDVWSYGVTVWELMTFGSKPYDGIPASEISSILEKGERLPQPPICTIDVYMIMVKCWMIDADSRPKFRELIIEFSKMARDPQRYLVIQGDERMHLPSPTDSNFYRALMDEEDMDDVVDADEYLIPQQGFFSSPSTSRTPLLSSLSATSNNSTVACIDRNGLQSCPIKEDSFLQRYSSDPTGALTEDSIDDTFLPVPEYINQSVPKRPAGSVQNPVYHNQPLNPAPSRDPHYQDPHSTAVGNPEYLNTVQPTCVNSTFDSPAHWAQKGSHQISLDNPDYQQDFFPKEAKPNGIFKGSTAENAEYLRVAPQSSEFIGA

Epidermal growth factor receptor (Homo sapiens, UniProt P00533, 746-750DEL/C797S/T790M), sequence (P00533 whole entry, looked up, stated change not applied): as the sequence (P00533 whole entry, looked up, stated change not applied) above

For `C=CC(=O)N1CCCCCCn2cc(c3ccccc32)-c2ccnc(n2)Nc2cccc1c2`, the results for the IC50 in the test on BaF3 [1] and in the test on BaF3 [2] were 215 nM and 839 nM, respectively.
For the compound `C=CC(=O)N1CCCCCCn2cc(c3ccccc32)-c2ccnc(n2)Nc2cc1ccc2F`, the IC50 in test [3] is greater than 100 nM; in test [4], 0.22 nM; in the test on BaF3 [1], 35 nM; in the test on BaF3 [2] it was 695 nM; in test [5] it was 6.49 nM.
On to `C=CC(=O)N1CCCCCCCn2cc(c3ccccc32)-c2ccnc(n2)Nc2cccc1c2`, for which the IC50 came to 55.3 nM in test [3]; 0.55 nM in test [4]; 218 nM with BaF3 [1]; 811 nM in the test on BaF3 [2]; 3.45 nM in test [5].
Take `C=CC(=O)N1CCCCCCCn2cc(c3ccccc32)-c2ccnc(n2)Nc2cc1ccc2OC`: the IC50 in test [3] was greater than 100 nM; in test [4], 0.65 nM; in the test on BaF3 [1], 148 nM; in the test with BaF3 [2] it was 867 nM; in test [5] it was 10 nM.
`C=CC(=O)N1CCCCCCn2cc(c3ccccc32)-c2ccnc(n2)Nc2cc1ccc2OC`: the IC50 in test [3] was greater than 100 nM; in test [4] it was 0.47 nM; in the test on BaF3 [1] it was 51 nM; in the test on BaF3 [2], 893 nM; in test [5], 8.31 nM.
Take `C=CC(=O)N1CCCCCCCCn2cc(c3ccccc32)-c2ccnc(n2)Nc2cccc1c2`: the IC50 in test [3] worked out at 86.5 nM; in test [4] it was 7.03 nM; in test [5], 20.1 nM.
With `C=CC(=O)N1CCCCCCCCCn2cc(c3ccccc32)-c2ccnc(n2)Nc2cccc1c2`, the IC50 in test [3] was greater than 100 nM; in test [4], 13.2 nM; in test [5], 25.2 nM.
For the compound `C=CC(=O)N1CCCCCCCn2cc(c3ccccc32)-c2ccnc(n2)Nc2cc1c(OCCCF)cc2F`, the concentration for half-maximal inhibition (IC50) in test [3] was greater than 100 nM; in test [4] it was 2.96 nM; in test [5], 25.7 nM.
Take `C=CC(=O)N1CCCCCCn2cc(c3ccccc32)-c2ccnc(n2)Nc2cc1c(OCCCF)cc2F`: the half-maximal inhibitory concentration (IC50) was greater than 100 nM in test [3]; 0.6 nM in test [4]; 63 nM in the test with BaF3 [1]; 835 nM with BaF3 [2]; 13.2 nM in test [5].
On to `C=CC(=O)N1CCCCCCCn2cc(c3ccccc32)-c2ccnc(n2)Nc2cc1ccc2F`, for which the IC50 in the test on BaF3 [1] was 213 nM; with BaF3 [2] it was 712 nM.
For `C=CC(=O)Nc1cc(Nc2nccc(-c3cn(C)c4ccccc34)n2)c(OC)cc1N(C)CCN(C)C` [OSIMERTINIB] the same measures were 33 nM and 859 nM.

By IC50 is commonly meant the concentration at which inhibition is half-maximal.
